The source of these data is patent publication US10844052B2, “LLS compounds for treatment of cancer” (THE REGENTS OF THE UNIVERSITY OF CALIFORNIA, priority 2016, dated 2020).

The subject of assay [1] is 22RV1 prostate cancer cells. The assay is described as follows: Cell viability of prostate cancer 22RV1 cells after 72 hours treatment. Conditions: Homo sapiens. Type of assay: cell-based.
For assay [2], the system named is PC3 prostate cancer cells. The assay is described as follows: Cell viability of prostate cancer PC3 cells after 72 hours treatment. As to conditions: Homo sapiens; for viability at 2.5 µM: PC-3, 2.5 μM; for viability at 5 µM: PC-3, 5 μM; for viability at 10 µM: PC-3, 10 μM; for viability at 20 µM: PC-3, 20 μM. The assay is classed as cell-based. How it is done: Effects of compounds LLS42-LLS80 on the viability of PC3 prostate cancer cells after 72 hours of treatment are shown in Table 2 below: […]

Turning to `CN1CCN(c2ccc(-c3nc4cc(C(CC(N)=O)NCC5CCCCC5)ccc4n3Cc3ccc(OC(F)(F)F)cc3)cc2)CC1` (centres unmarked) [LLS90, 3-((cyclohexylmethyl)amino)-3-(2-(4-(4-methylpiperazin-1-yl)phenyl)-1-(4-(trifluoromethoxy)benzyl)-1H-benzo[d]imidazol-5-yl)propanamide], in assay [1], the viability at 2.5 µM is 1%, the viability at 5 µM is 0% and the viability at 10 µM amounted to 0%.

With `NC(=O)CC(NCc1ccc(Cl)c(Cl)c1)c1ccc2c(c1)nc(-c1ccc(N(CCO)CCO)cc1)n2Cc1cccc2ccccc12` (centres unmarked) [LLS102, 3-(2-(4-(bis(2-hydroxyethyl)amino)phenyl)-1-(naphthalen-1-ylmethyl)-1H-benzo[d]imidazol-5-yl)-3-((3,4-dichlorobenzyl)amino)propanamide], in assay [1], the viability at 2.5 µM amounted to 23%, the viability at 5 µM was determined as 0% and the viability at 10 µM was found to be 0%.

For `CN(C)CCCOc1ccc(-c2nc3cc(C(CC(N)=O)NCC4CCCCC4)ccc3n2Cc2ccc(OC(F)(F)F)cc2)cc1` (centres unmarked) [LLS89, 3-((cyclohexylmethyl)amino)-3-(2-(4-(3-(dimethylamino)propoxy)phenyl)-1-(4-(trifluoromethoxy)benzyl)-1H-benzo[d]imidazol-5-yl)propanamide], in assay [1], the viability at 2.5 µM was 1%, the viability at 5 µM was 0% and the viability at 10 µM amounted to 0%.

In the case of `NC(=O)CC(NCC1CCCCC1)c1ccc2c(c1)nc(-c1ccc(N3CCOCC3)cc1)n2Cc1ccc2c(c1)OCO2` (centres unmarked) [LLS107, 3-(1-(benzo[d][1,3]dioxol-5-ylmethyl)-2-(4-morpholinophenyl)-1H-benzo[d]imidazol-5-yl)-3-((cyclohexylmethyl)amino)propanamide], in assay [1], the viability at 2.5 µM was found to be 67%, the viability at 5 µM was found to be 4% and the viability at 10 µM came out at 0%.

For `NC(=O)CC(NCC1CCCCC1)c1ccc2c(c1)nc(-c1ccc(N3CCOCC3)cc1)n2Cc1cccc2ccccc12` (centres unmarked) [LLS103, 3-((cyclohexylmethyl)amino)-3-(2-(4-morpholinophenyl)-1-(naphthalen-1-ylmethyl)-1H-benzo[d]imidazol-5-yl)propanamide], in assay [1], the viability at 2.5 µM was determined as 1%, the viability at 5 µM came to 0% and the viability at 10 µM amounted to 0%.

Consider `CN1CCN(c2ccc(-c3nc4cc(C(CC(N)=O)NCc5ccc(Cl)c(Cl)c5)ccc4n3Cc3ccc(Cl)c(Cl)c3)cc2)CC1` (centres unmarked) [LLS86, 3-(1-(3,4-dichlorobenzyl)-2-(4-(4-methylpiperazin-1-yl)phenyl)-1H-benzo[d]imidazol-5-yl)-3-((3,4-dichlorobenzyl)amino)propanamide], for which, in assay [1], the viability at 2.5 µM is 45%, the viability at 5 µM was 0% and the viability at 10 µM stood at 0%.

For the compound `CN(C)CCCOc1ccc(-c2nc3cc(C(CC(N)=O)NCc4ccc(Cl)c(Cl)c4)ccc3n2Cc2ccc(Cl)c(Cl)c2)cc1` (centres unmarked) [LLS85, 3-(1-(3,4-dichlorobenzyl)-2-(4-(3-(dimethylamino)propoxy)phenyl)-1H-benzo[d]imidazol-5-yl)-3-((3,4-dichlorobenzyl)amino)propanamide], in assay [1], the viability at 2.5 µM was determined as 65%, the viability at 5 µM is 1% and the viability at 10 µM stood at 0%.

With `NC(=O)CC(NCc1ccc(F)c(F)c1)c1ccc2c(c1)nc(-c1ccc(N(CCO)CCO)cc1)n2Cc1ccc(Cl)c(Cl)c1` (centres unmarked) [LLS83, 3-(2-(4-(bis(2-hydroxyethyl)amino)phenyl)-1-(3,4-dichlorobenzyl)-1H-benzo[d]imidazol-5-yl)-3-((3,4-difluorobenzyl)amino)propanamide], in assay [1], the viability at 2.5 µM amounted to 20%, the viability at 5 µM was 1% and the viability at 10 µM is 0%.

Turning to `CC(=O)OCCN(CCOC(C)=O)c1ccc(-c2nc3cc(C(CC(N)=O)NCc4ccc(-c5ccn[nH]5)s4)ccc3n2CCCN(C)C)cc1` (centres unmarked) [LLS78, ((4-(5-(1-(((5-(1H-pyrazol-5-yl)thiophen-2-yl)methyl)amino)-3-amino-3-oxopropyl)-1-(3-(dimethylamino)propyl)-1H-benzo[d]imidazol-2-yl)phenyl)azanediyl)bis(ethane-2,1-diyl) Diacetate], in assay [2], the viability at 2.5 µM turned out to be 97%, the viability at 5 µM stood at 93%, the viability at 10 µM was 101% and the viability at 20 µM was 100%.

Consider `NC(=O)CC(NCc1ccc(-c2cncnc2)cc1)c1ccc2c(c1)nc(-c1ccc(N(CCO)CCO)cc1)n2Cc1ccc(OC(F)(F)F)cc1` (centres unmarked) [LLS51, 3-(2-(4-(bis(2-hydroxyethyl)amino)phenyl)-1-(4-(trifluoromethoxy)benzyl)-1H-benzo[d]imidazol-5-yl)-3-((4-(pyrimidin-5-yl)benzyl)amino)propanamide], for which, in assay [2], the viability at 2.5 µM turned out to be 83%, the viability at 5 µM was found to be 79%, the viability at 10 µM is 99% and the viability at 20 µM worked out at 105%.

For `CC(=O)OCCN(CCOC(C)=O)c1ccc(-c2nc3cc(C(CC(N)=O)NCc4ccc(-c5ccncc5)cc4)ccc3n2CCCn2ccnc2)cc1` (centres unmarked) [LLS58Ac, ((4-(1-(3-(1H-imidazol-1-yl)propyl)-5-(3-amino-3-oxo-1-((4-(pyridin-4-yl)benzyl)amino)propyl)-1H-benzo[d]imidazol-2-yl)phenyl)azanediyl)bis(ethane-2,1-diyl) Diacetate], in assay [2], the viability at 2.5 µM was 100%, the viability at 5 µM came to 98%, the viability at 10 µM was determined as 91% and the viability at 20 µM was determined as 83%.

Regarding `COc1ccc(CCn2c(-c3ccc(N(CCOC(C)=O)CCOC(C)=O)cc3)nc3cc(C(N)CC(N)=O)ccc32)cc1` (centres unmarked) [LLS76, ((4-(5-(1,3-diamino-3-oxopropyl)-1-(4-methoxyphenethyl)-1H-benzo[d]imidazol-2-yl)phenyl)azanediyl)bis(ethane-2,1-diyl) Diacetate], in assay [2], the viability at 2.5 µM turned out to be 92%, the viability at 5 µM is 86%, the viability at 10 µM is 86% and the viability at 20 µM came out at 85%.

As to `CC(=O)OCCN(CCO)c1ccc(-c2nc3cc(C(CC(N)=O)NCc4ccc(-c5ccncc5)cc4)ccc3n2CCCn2ccnc2)cc1` (centres unmarked) [LLS67, 2-((4-(1-(3-(1H-imidazol-1-yl)propyl)-5-(3-amino-3-oxo-1-((4-(pyridin-4-yl)benzyl)amino)propyl)-1H-benzo[d]imidazol-2-yl)phenyl)(2-hydroxyethyl)amino)ethyl Acetate], in assay [2], the viability at 2.5 µM is 93%, the viability at 5 µM came out at 94%, the viability at 10 µM was found to be 99% and the viability at 20 µM turned out to be 93%.

With `CC(=O)OCCN(CCOC(C)=O)c1ccc(-c2nc3cc(C(CC(N)=O)NCc4cccn4S(=O)(=O)c4ccccc4)ccc3n2CCCN2CCCCC2)cc1` (centres unmarked) [LLS52Ac, ((4-(5-(3-amino-3-oxo-1-(((1-(phenylsulfonyl)-1H-pyrrol-2-yl)methyl)amino)propyl)-1-(3-(piperidin-1-yl)propyl)-1H-benzo[d]imidazol-2-yl)phenyl)azanediyl)bis(ethane-2,1-diyl) Diacetate], in assay [2], the viability at 2.5 µM is 91%, the viability at 5 µM was 96%, the viability at 10 µM amounted to 94% and the viability at 20 µM worked out at 91%.

Turning to `CC(=O)OCCN(CCO)c1ccc(-c2nc3cc(C(CC(N)=O)NCc4ccc(-c5ccn[nH]5)s4)ccc3n2CCCN(C)C)cc1` (centres unmarked) [LLS66, 2-((4-(5-(1-(((5-(1H-pyrazol-5-yl)thiophen-2-yl)methyl)amino)-3-amino-3-oxopropyl)-1-(3-(dimethylamino)propyl)-1H-benzo[d]imidazol-2-yl)phenyl)(2-hydroxyethyl)amino)ethyl Acetate], in assay [2], the viability at 2.5 µM stood at 98%, the viability at 5 µM came to 91%, the viability at 10 µM was 89% and the viability at 20 µM came to 79%.

`COc1cc(CNC(CC(N)=O)c2ccc3c(c2)nc(-c2ccc(N(CCOC(C)=O)CCOC(C)=O)cc2)n3C(C)C)cc(Br)c1OC` (centres unmarked) [LLS43Ac, ((4-(5-(3-amino-1-((3-bromo-4,5-dimethoxybenzyl)amino)-3-oxopropyl)-1-isopropyl-1H-benzo[d]imidazol-2-yl)phenyl)azanediyl)bis(ethane-2,1-diyl) Diacetate]: in assay [2], the viability at 2.5 µM is 97%, the viability at 5 µM amounted to 102%, the viability at 10 µM turned out to be 103% and the viability at 20 µM was 97%.

On to `NC(=O)CC(NCC1CCCCC1)c1ccc2c(c1)nc(-c1ccc(N(CCO)CCO)cc1)n2Cc1ccc(C(F)(F)F)cc1` (centres unmarked) [LLS71, 3-(2-(4-(bis(2-hydroxyethyl)amino)phenyl)-1-(4-(trifluoromethyl)benzyl)-1H-benzo[d]imidazol-5-yl)-3-((cyclohexylmethyl)amino)propanamide], for which, in assay [2], the viability at 2.5 µM came to 91%, the viability at 5 µM turned out to be 83%, the viability at 10 µM turned out to be 59% and the viability at 20 µM came out at 3%.

Take `NC(=O)CC(NCc1ccc2[nH]ncc2c1)c1ccc2c(c1)nc(-c1ccc(N(CCO)CCO)cc1)n2Cc1ccc(OC(F)(F)F)cc1` (centres unmarked) [LLS55, 3-(((1H-indazol-5-yl)methyl)amino)-3-(2-(4-(bis(2-hydroxyethyl)amino)phenyl)-1-(4-(trifluoromethoxy)benzyl)-1H-benzo[d]imidazol-5-yl)propanamide]: in assay [2], the viability at 2.5 µM is 91%, the viability at 5 µM stood at 100%, the viability at 10 µM came out at 102% and the viability at 20 µM stood at 92%.

Take `NC(=O)CC(NCC1CCCCC1)c1ccc2c(c1)nc(-c1ccc(N(CCO)CCO)cc1)n2Cc1ccc(OC(F)(F)F)cc1` (centres unmarked) [LLS42, 3-(2-(4-(bis(2-hydroxyethyl)amino)phenyl)-1-(4-(trifluoromethoxy)benzyl)-1H-benzo[d]imidazol-5-yl)-3-((cyclohexylmethyl)amino)propanamide]: in assay [2], the viability at 2.5 µM stood at 95%, the viability at 5 µM was determined as 92%, the viability at 10 µM worked out at 49% and the viability at 20 µM turned out to be 0%.
